Measured values from PMC12297887, “Enhanced Anticancer Potential of Pd(II)-Thiosemicarbazone Complexes: Selectivity, Mechanisms, and 3D Models” (Pharmaceutics, 2025).

Columns and labels:
[1] = tested on: MDA-MB-231 (triple-negative breast cancer); experiment: Cell viability (MTT), MDA-MB-231; assay type: cell-based, human; details: for IC50: 48 h of incubation, MTT; for Selectivity index (SI) MDA-MB-231: IC50 MRC5 / IC50 MDA-MB-231
Experimental: (§1) The cell lines used in the tests were A2780 (ovarian cancer), A2780cis (ovarian cisplatin resistant cancer), A549 (lung cancer), MRC5 (non-tumoral lung […]), MDA-MB-231 (triple-negative breast cancer), MCF-7 (breast cancer), SK-BR-3 (breast cancer), MCF-10A (non-tumoral breast cancer), and A375 (skin cancer—melanoma).
(§2) The MCF-10A cell line was grown in DMEM/F-12 culture medium, supplemented with 5% horse serum, human epidermal growth factor (EGF) (20 ng/mL), hydrocortisone (0.05 mg/mL), insulin (0.01 mg/mL), penicillin (1%), streptomycin (1%), and L-glutamine (2 mM). The A2780, A2780cis, and MCF-7 cell lines were cultured in RPMI-1640 medium, and the other lines in DMEM medium; both culture media were supplemented with 10% (v/v) FBS (fetal bovine serum), antibiotics, and antimycotics. Cultivation was carried out in culture flasks stored in a humid incubator at 37 °C, with an atmosphere of 5% CO2.
(§3) The plates were kept for 24 h in a humidified incubator (37 °C, 5% CO2), after which 0.75 μL of a DMSO solution (0.5% v/v) containing the compounds of interest was added to each well. The plates were then incubated for a further 48 h. The ratio of viability of cells was obtained using the MTT method. Through its reduction via the mitochondrial process, purple formazan is formed, which is proportional to cell viability. After incubating the microplates, 50 μL of a solution of MTT (1 mg∙mL^−1) in PBS was added to each well and the cells were incubated again in the oven for 4 h. Finally, the solution was removed from each well and 100 μL of isopropyl alcohol with 10% DMSO was added to solubilize the Formazan crystals. Absorbance measurements (540 nm) were then taken in each well using a BioTek EPOCH spectrophotometer (BioTek, Winooski, WT, USA). The data obtained was analyzed using Excel 360 and GraphPadPrism 8.0.2.

MCF-7 (breast cancer) = experiment: Cell viability (MTT), MCF-7; assay type: cell-based, human; details: for IC50: 48 h of incubation, MTT; for Selectivity index (SI) MCF-7: IC50 MRC5 / IC50 MCF-7
Experimental: as §1, §2, §3

SK-BR-3 (breast cancer) = experiment: Cell viability (MTT), SK-BR-3; assay type: cell-based, human; details: for IC50: 48 h of incubation, MTT; for Selectivity index (SI) SK-BR-3: IC50 MRC5 / IC50 SK-BR-3
Experimental: as §1, §2, §3

[2] = tested on: MCF-10A (non-tumoral breast); experiment: Cell viability (MTT), MCF-10A; assay type: cell-based, human; details: 48 h of incubation, non-tumorigenic breast line, read-out: IC50 MFC-10A
Experimental: as §1, §2, §3

A2780 (ovarian cancer) = experiment: Cell viability (MTT), A2780; assay type: cell-based; details: for IC50: 48 h of incubation, MTT; for Selectivity index (SI) A2780: IC50 MRC5 / IC50 A2780
Experimental: as §1, §2, §3

[3] = tested on: A2780cis (ovarian cisplatin resistant cancer); experiment: Cell viability (MTT), A2780cis; assay type: cell-based; details: for IC50: 48 h of incubation, MTT; for resistance factor (RF): IC50(A2780cis)/IC50(A2780); for Selectivity index (SI) A2780cis: IC50 MRC5 / IC50 A2780cis
Experimental: as §1, §2, §3

A549 (lung cancer) = experiment: Cell viability (MTT), A549; assay type: cell-based; details: for IC50: 48 h of incubation, MTT; for Selectivity index (SI) A549: IC50 MRC5 / IC50 A549
Experimental: as §1, §2, §3

MRC5 (non-tumoral lung) = experiment: Cell viability (MTT), MRC5; assay type: cell-based; details: 48 h of incubation, non-tumor lung fibroblast
Experimental: as §1, §2, §3

[4] = tested on: A375 (skin cancer, melanoma); experiment: Cell viability (MTT), A375; assay type: cell-based; details: 48 h of incubation
Experimental: as §1, §2, §3

A2780cis cells [5] = experiment: Apoptosis assay (PE-Annexin V/7AAD, flow cytometry); assay type: cell-based; details: ½ × IC50, 24 h; control 86.4%
Experimental: Apoptosis in A2780cis cells induced by the complexes was analyzed by flow cytometry; a PE-Annexin-V Apoptosis Detection kit (BD Biosciences) was employed. The cells (1 × 10^5 cells/well) were seeded in a 24-well plate. After incubation for 24 h, the cells were exposed to increasing concentrations of complex PdB1 for 24 h. After treatment, the cells were collected, centrifuged at 2000 rpm and 4 °C for 5 min, washed with ice-cold PBS, and resuspended in 150 µL of binding buffer. PE-Annexin V (2.5 µL) and 7ADD (2.5 µL) were added, which was followed by incubation in the dark at room temperature for 20 min. Then, the cells were centrifuged at 2000 rpm and 4 °C for 5 min, resuspended in 400 µL of binding buffer, and analyzed on an Accuri C6 (BD Biosciences) flow cytometer; 10,000 events were recorded. Fluorescence was quantified in triplicate with the Cell Quest software (BD Biosciences). Untreated cells were the negative control.

A2780cis spheroids = experiment: Three-dimensional (spheroid) assay; assay type: cell-based; details: for cell death within spheroids (DAPI/PI staining): 48 h; for spheroid morphology (brightfield): 48 h of treatment
Experimental: The 3D culture assay was performed with the A2780cis cell line using the Greiner Bio-One 96-well magnetic bioprinting kit. In total, 150 µL of magnetic nanoparticles were added to the cells grown in a 25 cm^2 bottle and incubated for 24 h. Then, 3750 cells/well were added to repellent 96-well plates, taken to the magnetic drive, and incubated for 4 days for the formation of […]. Once the spheroids had been obtained, they were treated with the compound PdB1 at different concentrations. Finally, images of the spheroids were recorded at 0 and 48 h, and images with fluorescence markers (DAPI and PI) were also obtained for the 48 h period using a logos biosystems CELENA® S fluorescence microscope.

A2780cis cells [6] = experiment: Clonogenic assay; assay type: cell-based; details: concentrations in relation to the IC50 of each complex, five days of treatment
Experimental: For this test, 600 cells of the A2780cis strain were added to each well of a six-well microplate. After incubating for 24 h in a 5% CO2 atmosphere, different concentrations of the compounds were added to the wells and incubated again for five days. After this period, the culture medium was changed and the plates were incubated for a further five days. Finally, the culture medium was removed and washed with PBS. Subsequently, a solution of methanol and acetic acid (3:1 v/v) was added for five minutes, and then the cells were stained with methyl violet solution. The plates were washed with distilled water. After drying, they were photographed using the iBright™ FL1500 (ThermoFisher, Waltham, MA, USA) and analyzed using ImageJ 1.53 software.

A2780cis cells [7] = experiment: Cell viability (LIVE/DEAD kit); assay type: cell-based; details: beginning at ½ × IC50, 48 h
Experimental: 1.0 × 10^4 A2780cis cells were added to each well in a 96-well plate. After 24 h, the cells were treated with different concentrations of the compound and incubated again for 48 h. Then 100 µL of the LIVE/DEAD® solution prepared as described by the manufacturer was added. The images were acquired using a fluorescence microscope (CELENA® S logos biosystems) with a 4× objective, carried out in triplicate. Live and dead cells were counted using ImageJ 1.53 software and the IC50 value was calculated using GraphPad Prism 8.0.2.

A2780cis cells [8] = experiment: Cell morphology assay (DAPI / Green Plasma fluorescence); assay type: cell-based; details: starting at ½ × IC50, 48 h
Experimental: For morphological analysis by fluorescence with Green Plasma and DAPI, 1 × 10^4 cells/well of A2780cis were added to 96-well plates and incubated for 24 h. After this, the cells were treated with different concentrations of the compound and incubated for 48 h. Then the medium was removed and the cells were fixed with methanol for 5 min, and 50 μL of CellMasK Green Plasma membrane was added. After 5 min, 50 µL of DAPI was added and incubated at room temperature for a further 10 min. Images were taken using a fluorescence microscope (CELENA® S Logos Biosystems, Anyang-si, Republic of Korea) with the appropriate filters.

[9] = Stability in DMSO by 31P{1H} NMR; assay type: physicochemical; details: d6-DMSO, after 48 h, no change in chemical shift
Experimental: The ^31P{^1H} NMR experiment was also carried out and the chemical shift values of the different complexes synthesized were similar to each other. There was a shift in the free PPh3 signal from −6.81 ppm to 30 ppm (Figure S12), indicating a reduction in the electronic density at the P of the triphenylphosphine due to coordination with Pd(II). Also, the PdB3 complex was tested for stability in DMSO.

Row | SMILES | IC50 [1] | Selectivity index (SI) MDA-MB-231 [1] | IC50 (MCF-7 (breast cancer)) | Selectivity index (SI) MCF-7 (MCF-7 (breast cancer)) | IC50 (SK-BR-3 (breast cancer)) | Selectivity index (SI) SK-BR-3 (SK-BR-3 (breast cancer)) | IC50 [2] | IC50 (A2780 (ovarian cancer)) | Selectivity index (SI) A2780 (A2780 (ovarian cancer)) | IC50 [3] | resistance factor (RF) [3] | Selectivity index (SI) A2780cis [3] | IC50 (A549 (lung cancer)) | Selectivity index (SI) A549 (A549 (lung cancer)) | IC50 (MRC5 (non-tumoral lung)) | IC50 [4] | further results
1 | N.N.[Cl][Pt][Cl] [Cisplatin, reference compound] | 33.14 ± 0.3 µM | 0.7 | 8.64 ± 0.8 µM | 2.5 | 5.86 ± 0.2 µM | 3.7 | 23.9 ± 0.7 µM | 14.24 ± 0.05 µM | 1.5 | 25.1 ± 0.9 µM | 1.76 | 0.9 | 13 ± 0.4 µM | 1.7 | 21.6 ± 0.8 µM | 12.2 ± 0.62 µM | –
2 | CC(/C=C/c1ccccc1)=[N+]1NC(N)=[S+][Pd-]1([Cl])[PH](c1ccccc1)(c1ccccc1)c1ccccc1.[Cl-] [PdB1, [PdCl(L-B1)(PPh3)]Cl] | 1.45 ± 0.1 µM | 1.2 | 3.79 ± 0.4 µM | 0.4 | 1.42 ± 0.07 µM | 1.2 | 1.58 ± 0.07 µM | 0.12 ± 0.01 µM | 14.2 | 0.2 ± 0.01 µM | 1.66 | 8.5 | 44.8 ± 2 µM | – | 1.7 ± 0.2 µM | 1.34 ± 0.08 µM | Q2-LL (viable cells, Q3 in the text) (A2780cis cells [5]): 37.1%; cell death within spheroids (DAPI/PI staining) (A2780cis spheroids; 12.5 µM): significant level of cell death; cell death within spheroids (DAPI/PI staining) (A2780cis spheroids; 25 µM): complete disintegration; spheroid morphology (brightfield) (A2780cis spheroids; 25 µM): marked reduction in compaction and cohesion; spheroid morphology (brightfield) (A2780cis spheroids; lower concentrations): continued spheroid growth; colony formation (A2780cis cells [6]): significantly reduced colony formation; LIVE/DEAD viability (A2780cis cells [7]): marked increase in red-fluorescing (non-viable) cells; nuclear morphology (DAPI staining) (A2780cis cells [8]): chromatin condensation and nuclear fragmentation
3 | CNC(NN=C(C)C=Cc1ccccc1)=[S][Pd]([Cl])[P](c1ccccc1)(c1ccccc1)c1ccccc1.[Cl-] [PdB2] | 0.92 ± 0.08 µM | 7.4 | 1.47 ± 0.2 µM | 4.7 | 1.48 ± 0.06 µM | 4.6 | – | 0.13 ± 0.01 µM | 52.7 | 0.21 ± 0.01 µM | 1.62 | 32.6 | 30.4 ± 0.4 µM | 0.2 | 6.85 ± 0.3 µM | – | –
4 | CCNC1=[S+][Pd-]([Cl])([PH](c2ccccc2)(c2ccccc2)c2ccccc2)[N+](=C(C)/C=C/c2ccccc2)N1.[Cl-] [PdB3, [PdCl(L-B3)(PPh3)]Cl] | 1.04 ± 0.06 µM | 8.9 | 0.91 ± 0.008 µM | 10.2 | < 2 µM | – | – | 0.23 ± 0.01 µM | 40.3 | 0.26 ± 0.01 µM | 1.13 | 35.7 | 13 ± 1 µM | 0.7 | 9.28 ± 0.3 µM | – | stability in DMSO [9]: remained stable
5 | NC1=[S+][Pd-]([Cl])([PH](c2ccccc2)(c2ccccc2)c2ccccc2)[N+](=C(/C=C/c2ccccc2)c2ccccc2)N1.[Cl-] [PdC1, [PdCl(L-C1)(PPh3)]Cl] | 5.97 ± 0.1 µM | 7.8 | 17.7 ± 1 µM | 2.6 | 2.25 ± 0.3 µM | 20.8 | 2.64 ± 0.06 µM | 0.4 ± 0.01 µM | 116.9 | 0.62 ± 0.01 µM | 1.55 | 75.4 | > 50 µM | – | 46.8 ± 2 µM | > 50 µM | colony formation (A2780cis cells [6]): reduced colony formation
6 | CNC1=[S+][Pd-]([Cl])([PH](c2ccccc2)(c2ccccc2)c2ccccc2)[N+](=C(/C=C/c2ccccc2)c2ccccc2)N1.[Cl-] [PdC2, [PdCl(L-C2)(PPh3)]Cl] | 9.66 ± 0.4 µM | – | > 50 µM | – | > 50 µM | – | – | 3.93 ± 0.2 µM | – | 1.66 ± 0.01 µM | 0.42 | – | > 50 µM | – | > 50 µM | – | –
7 | CCNC1=[S+][Pd-]([Cl])([PH](c2ccccc2)(c2ccccc2)c2ccccc2)[N+](=C(/C=C/c2ccccc2)c2ccccc2)N1.[Cl-] [PdC3, [PdCl(L-C3)(PPh3)]Cl] | > 50 µM | – | > 50 µM | – | > 50 µM | – | – | 22.8 ± 1 µM | – | 11.1 ± 0.6 µM | 0.48 | – | > 50 µM | – | > 50 µM | – | –
8 | CC#N.CC#N.[Cl][Pd][Cl] [[PdCl2(MeCN)2], reference compound] | > 50 µM | – | – | – | – | – | – | – | – | > 50 µM | – | – | > 50 µM | – | > 50 µM | – | –
